For one data set, the system named is Caco-2 cells. Put plainly: Uptake experiment, anthocyanins taken up by cells quantified by HPLC. Format: in vitro ADME, human. Conditions: for uptake reduction in the presence of glucose: 20 µM red grape anthocyanin extract, 1 mM glucose vs control without glucose; for increase in uptake with decreasing pH from 7 to 6.5: 10 µM strawberry anthocyanins; for Normalised Uptake (%): extrapolated to initial amount 10 µg/10 mL, intercept set at zero; for Uptake (%): 1 h, % of initial concentration. Here is the method:
Caco-2 cells were seeded at a density of 5 × 10^5 cells in a Petri dish of 10 cm diameter with a volume of 10 mL, containing DMEM supplemented with 10% FBS, 1% NEAA and 1% penicillin and streptomycin. […] Caco-2 cells were used between passages 65–76. The medium was changed every 2–3 days. On day 14, the cells were ready for the uptake experiment. Prior to the study, the medium were removed, and the cells were rinsed with PBS.
The effect of anthocyanin structure was examined using anthocyanin extract from strawberry at 10 and 20 µM while the effect of glucose was performed at 20 µM red grape anthocyanin extract in the presence of 1 mM glucose. Additionally, 10 µM strawberry anthocyanins at pH 6.5 and 7 was used to examine the effect of pH on anthocyanin uptake.
Briefly anthocyanin stock solution was diluted to a final concentration of 10 or 20 µM in DPBS. The anthocyanins (10 mL) were immediately added to the cells, and subsequently incubated at 37 °C for 1h. Following the incubation, DPBS containing anthocyanins was removed and the cells were washed with PBS three times. The anthocyanins taken up by the cells were extracted with 6% formic acid and scraped off for collection. The extract along with the scraped cells were then sonicated, followed by centrifugation at 4 °C, 1700× g for 10 min. The supernatant was filtered and dried under nitrogen. The dry anthocyanins were redissolved in 200 µL of aqueous formic acid containing 10% acidified methanol, and then filtered into the insert prior to HPLC analysis.
HPLC was used to identify and quantify anthocyanins present in juices and cellular extract following the uptake experiment. Anthocyanin standards and their standard curves were used to identify and quantify different anthocyanin structure present in juices and cellular extracts by determining their area under curve. The analysis was performed using an Agilent 1200 series HPLC with quaternary pump and diode array UV-visible detector. Sample (50 µL) was injected onto a reverse phase column of Nova-pak@C18 4 µm, with dimensions of 4.6 × 250 mm (Waters) equipped with a guard column. The mobile phases were 1% aqueous formic acid as solvent A and acetonitrile as solvent B. The flow rate was 1 mL/min with a column temperature of 35 °C. […] Solvent B was maintained at 100% for 5 min, and returned to 100% solvent A and 0% solvent B at 60 min. Wavelengths of 280 and 520 nm were chosen to detect the anthocyanins.

Data set [1] in a line: Anthocyanin stability during 1 h incubation at pH 7 and 6.5. The format is physicochemical. Here is the method: To assess degradation due to the pH, strawberry juice extract was incubated under the same conditions in the absence of the cells (Figure 3II). […] Anthocyanins can form additional compounds important for copigmentation with phenolic acids and can form pyranoanthocyanins.
The increased uptake with decreasing pH may be linked to the anthocyanins stability and indicate the involvement of pH dependent transport mechanisms involving a proton co-transporter.

Details of data set [2]: method as in PMID 18211024. The following applies: strawberries containing 222 µmol pelargonidin-3-O-glucoside ingested; cited from earlier work.
The nature of data set [3]: Extrapolation of Caco-2 uptake to jejunum uptake and blood/plasma concentration. Conditions: absorption of 0.88 mg, assuming 5 litres of blood.
Setting [4] is: strawberry anthocyanins at 10 µM, initial amount Cn 1.91, Pg 45.69, Pg-rham 14.50 µg/10 mL.
[5] abbreviates: strawberry anthocyanins at 20 µM, initial amount Cn 3.89, Pg 95.23, Pg-rham 29.59 µg/10 mL.

Turning to `COc1cc(-c2[o+]c3cc(O)cc(O)c3cc2O[C@@H]2O[C@H](CO)[C@@H](O)[C@H](O)[C@H]2O)cc(OC)c1O` [malvidin-3-glucoside], in the data set on Caco-2 cells, the “uptake reduction in the presence of glucose” value (“uptake reduction” below) is on record as 69–72%.
In the case of `OC[C@H]1O[C@@H](Oc2cc3c(O)cc(O)cc3[o+]c2-c2ccc(O)c(O)c2)[C@H](O)[C@@H](O)[C@@H]1O` [cyanidin-3-glucoside], in the data set on Caco-2 cells, the “increase in uptake with decreasing pH from 7 to 6.5” value is reported as 139%, the “uptake reduction” value is 67% and the “Normalised Uptake (%)” value is 0.159%. Further, the “Uptake (%)” value in the data set with Caco-2 cells (setting [4]) is given as 2.32 × 10^−2%. Moreover, in the data set with Caco-2 cells (strawberry anthocyanins at 20 µM, initial amount Cn 3.89, Pg 95.23, Pg-rham 29.59 µg/10 mL, listed as Cn), the “Uptake (%)” value was 6.54 × 10^−2%. This compound also came in with a stability in data set [1] (pH 6.5, 1 h incubation) of 88.7%. In data set [1] (pH 7, 1 h incubation), the stability is reported as 63.1%.
Consider `COc1cc(-c2[o+]c3cc(O)cc(O)c3cc2O[C@@H]2O[C@H](CO)[C@@H](O)[C@H](O)[C@H]2O)cc(O)c1O` [petunidin-3-glucoside], for which the “uptake reduction” value with Caco-2 cells was 69–72%.
Take pelargonidin-O-glucuronide: in data set [2], the peak plasma concentration is 274 ± 24 nM and the “time of peak plasma concentration” value is 1.1 ± 0.4 h.
For the compound pelargonidin-3-rhamnosylglucoside, in the data set with Caco-2 cells, the “increase in uptake with decreasing pH from 7 to 6.5” value is recorded as 88%. Further, in the data set with Caco-2 cells, the “Normalised Uptake (%)” value was 0.02%. The “Uptake (%)” value is 2.66 × 10^−2% with Caco-2 cells (setting [4]) and 5.93 × 10^−2% in the data set on Caco-2 cells (setting [5]). Further, the stability in data set [1] (pH 6.5, 1 h incubation) worked out at 91.8%; in data set [1] (pH 7, 1 h incubation), 72.3%.
In the case of `OC[C@H]1O[C@@H](Oc2cc3c(O)cc(O)cc3[o+]c2-c2cc(O)c(O)c(O)c2)[C@H](O)[C@@H](O)[C@@H]1O` [delphinidin-3-glucoside], the “uptake reduction” value with Caco-2 cells is listed as 42%.
Take `OC[C@H]1O[C@@H](Oc2cc3c(O)cc(O)cc3[o+]c2-c2ccc(O)cc2)[C@H](O)[C@@H](O)[C@@H]1O` [pelargonidin-3-glucoside]: in the data set with Caco-2 cells, the “increase in uptake with decreasing pH from 7 to 6.5” value worked out at 118% and the “Normalised Uptake (%)” value is listed as 0.007%. Further, in the data set on Caco-2 cells (setting [4]), the “Uptake (%)” value was 2.88 × 10^−2%. In addition, in the data set with Caco-2 cells (setting [5]), the “Uptake (%)” value is on record as 6.95 × 10^−2%. In data set [3], the blood concentration is recorded as 400 nM and the plasma concentration is listed as 727 nM. Further, in data set [1] (pH 6.5, 1 h incubation), the stability was 93.7%. Also, the stability in data set [1] (pH 7, 1 h incubation) is on record as 67.7%.

(Values after article PMC9698201, “Factors Affecting Cellular Uptake of Anthocyanins: The Role of pH, Glucose and Anthocyanin Structure” (Nutrients, 2022).)
